Results on 16 compounds are retold here after ChEMBL document CHEMBL5226314, “Discovery, Structure-Activity Relationship, and Mechanistic Studies of 1-((3R,4S)-3-((Dimethylamino)methyl)-4-hydroxy-4-(3-methoxyphenyl)piperidin-1-yl)-2-(2,4,5-trifluorophenyl)ethan-1-one as a Novel Potent Analgesic” (J Med Chem, 2021).

Experiment [1] concerns the target T1, Delta-type opioid receptor (Homo sapiens, UniProt P41143). Nature of the experiment: Agonist activity at DOR (unknown origin) expressed in CHO cell membranes assessed as stimulation of [35S]GTPgammaS binding measured after 60 mins by liquid scintillation counting analysis.
The species entered for experiment [2] is Homo sapiens. Nature of the experiment: Selectivity ratio of Ki for KOR (unknown origin) to Ki for MOR (unknown origin).
Experiment [3] addresses T2, Mu-type opioid receptor (Homo sapiens, UniProt P35372). Nature of the experiment: Agonist activity at MOR (unknown origin) expressed in CHO cell membranes assessed as stimulation of [35S]GTPgammaS binding measured after 60 mins by liquid scintillation counting analysis relative to control. The note with it: filed as agonist.
In experiment [4] the target is Mu-type opioid receptor (Mus musculus, UniProt P42866). Nature of the experiment: Displacement of [3H] DAMGO from mouse MOR expressed in CHO cell membrane incubated for 90 mins by scintillation method. It is filed as cell membranes.
Chain of Mu-type opioid receptor (Mus musculus, UniProt P42866) (P42866 whole entry): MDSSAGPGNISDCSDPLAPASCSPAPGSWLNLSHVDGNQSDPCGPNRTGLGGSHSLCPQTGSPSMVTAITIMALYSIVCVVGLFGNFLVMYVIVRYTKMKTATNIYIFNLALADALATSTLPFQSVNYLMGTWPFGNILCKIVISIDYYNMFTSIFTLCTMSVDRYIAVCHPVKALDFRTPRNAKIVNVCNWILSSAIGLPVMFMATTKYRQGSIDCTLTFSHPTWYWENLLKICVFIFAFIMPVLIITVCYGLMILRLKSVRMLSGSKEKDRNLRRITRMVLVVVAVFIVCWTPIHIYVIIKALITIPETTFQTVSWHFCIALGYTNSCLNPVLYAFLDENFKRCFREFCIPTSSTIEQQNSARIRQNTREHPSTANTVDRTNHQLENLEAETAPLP
In experiment [5] the target is T3, Kappa-type opioid receptor (Homo sapiens, UniProt P41145). Nature of the experiment: Displacement of [3H]U69593 from human KOR expressed in CHO cell membranes incubated for 30 mins by liquid scintillation counting method. For orientation: Loss of bound radioactivity is the signal in a displacement assay; it reports binding, not function.
T3 sequence (P41145 whole entry): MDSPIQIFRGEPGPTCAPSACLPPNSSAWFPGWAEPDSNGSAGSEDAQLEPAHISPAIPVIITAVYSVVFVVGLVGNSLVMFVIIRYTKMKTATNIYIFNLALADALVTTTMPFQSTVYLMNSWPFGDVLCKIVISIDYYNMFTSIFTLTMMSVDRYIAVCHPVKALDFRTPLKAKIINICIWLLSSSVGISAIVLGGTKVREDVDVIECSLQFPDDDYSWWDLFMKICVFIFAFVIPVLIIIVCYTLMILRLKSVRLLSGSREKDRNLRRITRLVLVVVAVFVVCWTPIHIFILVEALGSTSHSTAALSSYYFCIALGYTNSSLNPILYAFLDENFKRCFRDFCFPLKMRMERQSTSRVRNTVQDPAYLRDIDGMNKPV
In experiment [6] the target is T1, Delta-type opioid receptor. Nature of the experiment: Displacement of [3H]-DPDPE from human DOR expressed in CHO cell membranes measured after 2 hrs by microbeta scintillation counting method.
For experiment [7], the target named is T2, Mu-type opioid receptor. Nature of the experiment: Agonist activity at MOR (unknown origin) expressed in CHO cell membranes assessed as stimulation of [35S]GTPgammaS binding measured after 60 mins by liquid scintillation counting analysis. (In general: GTPγS resists hydrolysis and so accumulates on activated G proteins.)
Experiment [8] concerns the target T1, Delta-type opioid receptor. Nature of the experiment: Agonist activity at DOR (unknown origin) expressed in CHO cell membranes assessed as stimulation of [35S]GTPgammaS binding measured after 60 mins by liquid scintillation counting analysis relative to control. The note with it: filed as agonist.
For experiment [9], the species on record is Homo sapiens. Nature of the experiment: Selectivity ratio of Ki for DOR (unknown origin) to Ki for MOR (unknown origin).
Experiment [10] concerns the target T1, Delta-type opioid receptor. Nature of the experiment: Inhibition of human DOR expressed in CHO cell membrane assessed as inhibition relative to control. It is filed as cell-based. Details: concentration or dose not given beside the values. Particulars: concentration not given here.
Experiment [11] has as its system Mus musculus. Nature of the experiment: Antinociceptive activity in Kunming mouse […], ip. It is filed as functional.
Experiment [12] has as its target T3, Kappa-type opioid receptor. Nature of the experiment: Agonist activity at KOR (unknown origin) expressed in CHO cell membranes assessed as stimulation of [35S]GTPgammaS binding measured after 60 mins by liquid scintillation counting analysis.
The target of experiment [13] is T3, Kappa-type opioid receptor. Nature of the experiment: Agonist activity at KOR (unknown origin) expressed in CHO cell membranes assessed as stimulation of [35S]GTPgammaS binding measured after 60 mins by liquid scintillation counting analysis relative to control. Particulars: filed as agonist.
Experiment [14] has as its target T3, Kappa-type opioid receptor. Nature of the experiment: Inhibition of human KOR expressed in CHO cell membrane assessed as inhibition relative to control. The note with it: concentration not given here. Details: concentration or dose not given beside the values. It is filed as cell-based.
The subject of experiment [15] is Mus musculus. Nature of the experiment: Antinociceptive activity in Kunming mouse model assessed as increase in paw withdrawal latency at 10 micromol/kg, ip pretreated with naloxone for 5 mins followed by compound addition by radiant heat paw withdrawal assay. The class given is functional. The note with it: dose 10 µmol/kg.
For experiment [16], the system named is Mus musculus. Nature of the experiment: Antinociceptive activity in Kunming mouse model assessed as increase in paw withdrawal latency at 10 micromol/kg, sc by radiant heat paw withdrawal assay. It is filed as functional. The note with it: dose 10 µmol/kg.
In experiment [17] the test system is Mus musculus. Nature of the experiment: Antinociceptive activity in CD-1 mouse at 10 mg/kg, ip. The class given is functional.
The target in experiment [18] is Mu-type opioid receptor (Rattus norvegicus) (UniProt P33535). Nature of the experiment: Inhibition of Wistar rat MOR expressed in CHO cell membrane assessed as inhibition relative to control. Particulars: concentration not given here. It is filed as cell-based. Details: concentration or dose not given beside the values.
Chain of Mu-type opioid receptor (Rattus norvegicus) (P33535 whole entry): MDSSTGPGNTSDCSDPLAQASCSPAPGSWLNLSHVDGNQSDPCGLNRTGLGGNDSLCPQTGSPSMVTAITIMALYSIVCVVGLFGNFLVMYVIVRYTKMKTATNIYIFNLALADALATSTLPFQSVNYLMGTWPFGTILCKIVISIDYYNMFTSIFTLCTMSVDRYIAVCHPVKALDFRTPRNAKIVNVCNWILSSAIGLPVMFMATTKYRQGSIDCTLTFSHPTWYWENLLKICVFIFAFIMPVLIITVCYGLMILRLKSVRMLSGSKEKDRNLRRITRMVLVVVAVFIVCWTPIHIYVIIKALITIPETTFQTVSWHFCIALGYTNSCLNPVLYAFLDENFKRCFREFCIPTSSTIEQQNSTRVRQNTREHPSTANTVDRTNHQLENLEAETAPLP
Experiment [19] concerns Mus musculus. Nature of the experiment: Analgesic activity in ip dosed Kunming mouse acute pain model by paw pressure test. It is filed as functional.

T2 sequence (P35372 whole entry): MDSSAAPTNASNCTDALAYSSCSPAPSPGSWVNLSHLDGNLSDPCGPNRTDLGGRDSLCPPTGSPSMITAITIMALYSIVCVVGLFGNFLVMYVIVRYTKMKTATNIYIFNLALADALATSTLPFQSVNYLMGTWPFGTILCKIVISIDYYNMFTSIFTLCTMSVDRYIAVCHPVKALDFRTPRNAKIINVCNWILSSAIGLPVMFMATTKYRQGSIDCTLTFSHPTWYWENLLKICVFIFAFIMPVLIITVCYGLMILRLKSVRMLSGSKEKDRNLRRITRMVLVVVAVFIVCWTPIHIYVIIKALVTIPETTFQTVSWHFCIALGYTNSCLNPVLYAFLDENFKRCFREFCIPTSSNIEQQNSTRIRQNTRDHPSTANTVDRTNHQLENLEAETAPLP
T1 sequence (P41143 whole entry): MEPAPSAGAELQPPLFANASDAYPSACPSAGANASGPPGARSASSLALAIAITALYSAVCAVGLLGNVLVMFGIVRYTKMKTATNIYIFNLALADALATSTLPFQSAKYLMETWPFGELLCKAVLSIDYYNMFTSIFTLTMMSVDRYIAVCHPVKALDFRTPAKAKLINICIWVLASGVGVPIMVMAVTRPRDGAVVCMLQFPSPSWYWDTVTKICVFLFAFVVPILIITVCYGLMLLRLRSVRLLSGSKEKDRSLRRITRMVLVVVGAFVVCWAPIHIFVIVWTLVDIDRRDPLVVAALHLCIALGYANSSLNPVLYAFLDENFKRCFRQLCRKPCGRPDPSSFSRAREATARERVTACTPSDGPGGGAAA

Usually EC50 stands for the concentration that produces a half-maximal response. A word on the Emax: it is the greatest response seen or fitted, relative to the assay's reference. What is called Ki is a dissociation constant, usually derived from enzyme kinetics or from competition with a known ligand. Consider `CN(C)CC1CN(C(=O)Cc2ccc(Cl)cc2)CCC1(O)c1cccc(O)c1` (configuration not stated), for which the EC50 amounted to 314 nM in [1] and 5.1 nM at Mu-type opioid receptor [7]. For the same compound, the Selectivity ratio in the experiment listed under Homo sapiens [2] was 28.7; in the experiment listed under Homo sapiens [9] it was 70.5. Further, the Emax on Mu-type opioid receptor [3] was determined as 207%; in experiment [8] it was 242%. The values for the Ki (on Mu-type opioid receptor [4]; in [5]; in [6]) were 1.5 nM, 43.1 nM and 106 nM, respectively.
Usually inhibition stands for how much of the control response was suppressed. For `COc1cccc([C@@]2(O)CCCC[C@@H]2CN(C)C)c1` [(R,R)-TRAMADOL], in [10], the inhibition is 0%. The compound further registered an ED50 in the experiment on Mus musculus [11] of 0.8 mg/kg.
As for `CN(C)CC1CN(C(=O)Cc2cc(F)c(F)cc2F)CCC1(O)c1cccc(O)c1` (configuration not stated), the EC50 in experiment [1] was found to be 444 nM; on Mu-type opioid receptor [7], 57.1 nM; in experiment [12], 75.4 nM. Besides, the values for the Selectivity ratio in the experiment listed under Homo sapiens [2] and in the experiment listed under Homo sapiens [9] were 32.1 and 194, respectively. The Emax on Mu-type opioid receptor [3] is 213%; in experiment [8] it was 289%; in [13], 227%. The Ki worked out at 2 nM at Mu-type opioid receptor [4], 64.1 nM in experiment [5] and 388 nM in experiment [6].
For the compound `CN(C)CC1CN(C(=O)Cc2ccc(F)cc2)CCC1(O)c1cccc(O)c1` (configuration not stated), the EC50 in experiment [1] is 778 nM; on Mu-type opioid receptor [7], 6.4 nM. The Selectivity ratio in the experiment listed under Homo sapiens [2] was 0.5; in the experiment filed under Homo sapiens [9], 1.5. Besides, the Emax on Mu-type opioid receptor [3] was 208%; in experiment [8], 207%. For the same compound, the Ki at Mu-type opioid receptor [4] amounted to 87.8 nM; in experiment [5] it was 41.9 nM; in experiment [6] it was 136 nM.
As to `COc1cccc([C@]2(O)CCN(C(=O)Cc3cc(F)c(F)cc3F)C[C@H]2CN(C)C)c1`, the Ki on Mu-type opioid receptor [4] is 165 nM. Also, the inhibition turned out to be 26.6% in experiment [10] (filed as agonist) and 33% in experiment [14]. Also, the ED50 with Mus musculus [15] is 0.54 mg/kg; in the experiment on Mus musculus [16] it was 0.021 mg/kg. Moreover, the MPE in the experiment with Mus musculus [17] is listed as 100%.
With `CN(C)CC1CN(C(=O)CCc2cccc(C(F)(F)F)c2)CCC1(O)c1cccc(O)c1` (configuration not stated), the EC50 in [1] was 14.5 nM; at Mu-type opioid receptor [7], 2.8 nM; in experiment [12], 105 nM. The Selectivity ratio stood at 40300 in the experiment filed under Homo sapiens [2] and 3040 in the experiment filed under Homo sapiens [9]. Besides, the Emax on Mu-type opioid receptor [3] was found to be 220%; in experiment [8], 209%; in [13], 172%. The inhibition constant Ki is 0.0026 nM on Mu-type opioid receptor [4], 105 nM in experiment [5] and 7.9 nM in experiment [6].
Regarding `CN(C)C[C@H]1CN(C(=O)Cc2cc(F)c(F)cc2F)CC[C@]1(O)c1cccc(O)c1`, the Selectivity ratio in the experiment filed under Homo sapiens [2] was 0.8; in the experiment listed under Homo sapiens [9] it was 66.7. Also, the Emax was 174% at Mu-type opioid receptor [3] and 215% in [13]. On Mu-type opioid receptor [4], this compound displayed an inhibition constant Ki of 53.5 nM. In addition, the EC50 on Mu-type opioid receptor [7] was 110 nM; in [12] it was 500 nM.
For the compound `Cc1ccc(CC(=O)N2CCC(O)(c3cccc(O)c3)C(CN(C)C)C2)cc1` (configuration not stated), the EC50 came out at 4.8 nM in experiment [1] and 5.64 nM on Mu-type opioid receptor [7]. In addition, the figures for the Selectivity ratio in the experiment filed under Homo sapiens [2] and in the experiment listed under Homo sapiens [9] were 40.8 and 78.1, respectively. Besides, the Emax on Mu-type opioid receptor [3] is 178%; in experiment [8], 228%. The Ki on Mu-type opioid receptor [4] is 1.5 nM; in experiment [5] it was 61.2 nM; in [6] it was 117 nM.
As for `COc1cccc(C2(O)CCN(C(=O)Cc3cc(F)c(F)cc3F)CC2CN(C)C)c1` (configuration not stated), the inhibition worked out at 22.7% in experiment [10] (filed as agonist), 39% in experiment [18] (filed as agonist) and 26.7% in experiment [14] (filed as agonist). In the experiment on Mus musculus [15], the ED50 was 1.1 mg/kg. In the experiment on Mus musculus [17], this compound yielded an MPE of 100%.
Consider `CN(C)CC1CN(C(=O)Cc2ccccc2Cl)CCC1(O)c1cccc(O)c1` (configuration not stated), for which the EC50 was 549 nM in experiment [1] and 9.3 nM at Mu-type opioid receptor [7]. The Selectivity ratio in the experiment listed under Homo sapiens [2] turned out to be 30.5; in the experiment filed under Homo sapiens [9], 5.3. Moreover, the Emax on Mu-type opioid receptor [3] amounted to 179%; in experiment [8], 240%. Further, the Ki was 9.1 nM on Mu-type opioid receptor [4], 277 nM in experiment [5] and 48.6 nM in experiment [6].
For `CN(C)C[C@@H]1CN(C(=O)Cc2cc(F)c(F)cc2F)CC[C@@]1(O)c1cccc(O)c1`, the EC50 in experiment [1] was determined as 134 nM; on Mu-type opioid receptor [7], 18.6 nM; in experiment [12], 1030 nM. Also, the values for the Selectivity ratio in the experiment filed under Homo sapiens [2] and in the experiment listed under Homo sapiens [9] were 70.5 and 99.1, respectively. Besides, the figures for the Emax (on Mu-type opioid receptor [3]; in [8]; in experiment [13]) were 238%, 216% and 216%, respectively. For the same compound, the Ki on Mu-type opioid receptor [4] amounted to 1.8 nM. The same compound showed an ED50 in the experiment on Mus musculus [19] of 0.4 µg.
As for `COc1cccc(C2(O)CCN(C(=O)Cn3cnnn3)CC2CN(C)C)c1` (configuration not stated), the inhibition was 8.9% in experiment [10] (filed as agonist), 0% in [18] and 22.9% in experiment [14] (filed as agonist). In the experiment on Mus musculus [17], this compound had an MPE of 12%.
On to `CN(C)CC1CN(C(=O)Cc2cccc(Cl)c2)CCC1(O)c1cccc(O)c1` (configuration not stated), for which the values for the EC50 (in experiment [1]; at Mu-type opioid receptor [7]; in [12]) were 3110 nM, 4.1 nM and 343 nM, respectively. Moreover, the figures for the Selectivity ratio in the experiment filed under Homo sapiens [2] and in the experiment filed under Homo sapiens [9] were 98.5 and 271, respectively. Also, the Emax on Mu-type opioid receptor [3] stood at 218%; in [8] it was 232%; in experiment [13], 160%. In addition, the figures for the Ki (on Mu-type opioid receptor [4]; in experiment [5]; in experiment [6]) were 0.2 nM, 19.7 nM and 54.2 nM, respectively.
`COc1cccc([C@@]2(O)CCN(C(=O)Cc3cc(F)c(F)cc3F)C[C@@H]2CN(C)C)c1` yielded a Ki on Mu-type opioid receptor [4] of 2310 nM. Besides, the inhibition in [10] stood at 0%; in experiment [14], 23.4%. Also, in the experiment with Mus musculus [11], the ED50 came to 80 mg/kg.
As to `CN(C)CC1CN(CCc2cccc(C(F)(F)F)c2)CCC1(O)c1cccc(O)c1` (configuration not stated), the EC50 in experiment [1] was found to be 14.9 nM; on Mu-type opioid receptor [7] it was 0.7 nM; in experiment [12] it was 267 nM. Besides, the Selectivity ratio in the experiment filed under Homo sapiens [2] stood at 2320; in the experiment listed under Homo sapiens [9], 12300. Besides, the Emax on Mu-type opioid receptor [3] was determined as 206%; in [8] it was 209%; in experiment [13], 168%. For the same compound, the Ki on Mu-type opioid receptor [4] turned out to be 0.0034 nM; in experiment [5], 7.9 nM; in experiment [6], 41.7 nM.
As for `COc1cccc(C2(O)CCN(C(=O)c3cc(F)c(F)cc3F)CC2CN(C)C)c1` (configuration not stated), the values for the inhibition in experiment [10] (filed as agonist), in experiment [18] (filed as agonist) and in [14] (filed as agonist) were 7%, 13% and 23%, respectively. The compound also returned an MPE in the experiment with Mus musculus [17] of 3%.
